We go through 3 molecules from patent publication US8455450B2, “Methods for obtaining a therapeutically effective amount of hematopoietic precursor cells and long term engraftment thereof” (Biokine Therapeutics Ltd., priority 2006, dated 2013).

In experiment [1] the test system is hematopoietic progenitor cells (HPCs). The experiment in a line: Mobilization of hematopoietic progenitor cells to the blood, colony-forming cell assay. In kind it is in vivo, C57BL/6 mice. The conditions noted are these: 5 mg/kg s.c. 4F-benzoyl-TN14003 or AMD3100, 2 h, G-CSF 2.5 μg s.c. twice a day for 4 days, combination 18 h after last G-CSF.
In the next experiment the test system is white-blood-cells (WBC). The experiment is classed as in vivo. Conditions: 5 mg/kg s.c. 4F-benzoyl-TN14003 or AMD3100, 2 h, G-CSF 2.5 μg s.c. twice a day for 4 days, combination 18 h after last G-CSF.
Experiment [2] has as its system BM cells on stromal cells (14F1.1). The experiment in a line: In vitro production of progenitors and mature cells from BM cells seeded on stromal cells (14F1.1). The experiment is classed as cell-based. Here is the method:
More specifically, the number of colonies was assayed by collecting the cells (10^5/plate) 4 days after treatment form the treated and control (untreated) plates, and evaluating the number of progenitor cells using a colony-forming cell assay. Burst forming units erythrocyte (BFU-E), colony forming units granulocyte-macrophage (CFU-GM), colony forming units megakaryocytes (CFU-M), and colony forming units granulocyte-erythrocyte-monocyte-macrophage (CFU-GEMM) were assayed by plating the cells in Iscove's-modified Dulbecco's Medium (IMDM) containing 1% methylcellulose, 15% FBS, 1% bovine serum albumin (BSA), 3 U/mL rh EPO, […] 2-mercaptoethanol, 2 mM L-glutamine, 50 ng/mL rmSCF, 10 ng/mL rmIL-3, […] rh Insulin, 10 ng/mL rh IL-6, and […] Human Transferrin (Methocult GF M3434; StemCell Technologies Inc.). The cultures were incubated at 37° C. in a humidified atmosphere containing 5% CO2. Seven days later, typical colonies were visually scored by morphologic criteria using a light microscope and the frequency of CFU was calculated. Staining colonies with benzidine dihydrochloride (Sigma, Israel) was used to localize hemoglobin-containing cells.

For experiment [3], the system named is hematopoietic stem cells (HSCs). The experiment in a line: Hematopoietic stem cell assay: transplantation of mobilized blood cells into lethally irradiated mice, survival. The experiment is classed as in vivo, C57BL/6 mice. The conditions noted are these: 2 h. Here is the method:
C57BL/6 mice, served as donors, were injected with 5 mg/kg of either 4F-benzoyl-TN14003 or AMD3100. 2 h later peripheral blood cells were collected following by ACK lysis and transferred into C57BL/6 recipient mice that were given a lethal dosing of irradiation (900 cGy) 24 h before i.v. injection of cells. A total cell obtained from 900 or 225 microliter of blood was transferred into single recipient mouse in a total volume of 200 μl PBS. Recipient mice transferred with cells obtained from blood of untreated mice or with normal BM cells were served as controls. Survival of mice was monitored for 4 months.
Although mobilization of HPCs may be of use for short-term repopulation in a transplantation setting, HSCs are required for long-term repopulation. To assess the effect of 4F-benzoyl-TN14003 on mobilization of murine HSCs, a transplantation model was used, in which donor C57Bl/6 mice were treated with 4F-benzoyl-TN14003 or AMD3100. After 2 h, blood was collected and cells isolated from an equal volume of blood obtained from each treated group (900 or 225 microliter in different experiments) were transferred for engraftment in lethally irradiated recipient C57Bl/6 mice. Survival of the recipient mice, indicative for long-term repopulating (LTR) activity and presence of HSCs, was monitored.

The test system of a further experiment is PC3 cells. Kind of experiment: MIP3α secretion by PC3 prostate cells (ELISA). The experiment is classed as cell-based. The source says: (§1) A PC3 prostate cell line that overexpresses high levels of CXCR4 was generated. […] FIG. 1A presents FACS histograms of PC3 cells (left panel) and a single cell clone with stable overexpression of CXCR4, GFP and luc genes (PC3-CXCR4.5, right panel) that were stained for the control (IgG2a-PE, full histograms) and CXCR4 (IgG2a-12G5, empty histograms) antibodies.
(§2) In this example, regulation of the chemokine MIP3α (macrophage inflammatory protein 3α) was examined. […] In FIG. 1B, PC3 (left panel) and PC3-CXCR4.5 (right panel) cells were stimulated with the indicated concentrations of CXCL12 for 48 hours and MIP3α secretion was assessed by ELISA. The results represent the average of triplicates±STDEV.
(§3) The effects of the CXCR4 antagonist AMD3100 and of 4F-benzoyl-TN14003 (4FB-TN14003), hitherto known as a CXCR4 antagonist, on MIP3α secretion were further tested. […] In FIG. 10, CXCR4 signaling in PC3 (left panel) and PC3-CXCR4.5 (right panel) cells was inhibited with anti-CXCL12 antibodies (αCXCL12) and Pertussis toxin (PTX) treatments alone or in combination with CXCL12, as indicated. Secretion of MIP3α was assessed by ELISA. The results represent the average of triplicates±STDEV.
In general terms: An ELISA detects its analyte on a solid surface through an enzyme-linked reagent.

Another experiment deals with PC3-CXCR4.5 cells. The experiment in a line: MIP3α secretion by CXCR4-overexpressing PC3-CXCR4.5 cells (ELISA). In kind it is cell-based.
Description: as §1, §2, §3
Spontaneous secretion of MIP3α is CXCL12 and PTX independent in these cells.

In experiment [4] the test system is granulocytes (GR-1 positive cells). The experiment in a line: Granulocyte (GR-1 positive) counts in blood and bone marrow in a chemotherapy model. Conditions: CPM 250 mg/kg total i.p.; 4F-benzoyl-TN14003 5 mg/kg s.c., G-CSF 5 μg/mouse. The experiment is classed as in vivo, mice. Here is the method:
Mice received a total dose of 250 mg/kg cyclophosphamide (CPM) by two 0.25 ml intra-peritoneal injections scheduled at day 0 (150 mg/kg) and day 3 (100 mg/kg). Mice were subcutaneously treated with 0.2 ml of 4F-benzoyl-TN14003 (5 mg/kg) at the indicated time points, as detailed in FIG. 13A. Flow cytometery was used to assess the number of cells in the blood and bone marrow (BM), and distinguish between the different populations. Cells were gated according to forward scatter and side scatter to exclude dead cells and to identify granulocytes (GR-1 positive cells).
Mice received a total dose of 250 mg/kg CPM by two 0.25 ml intra-peritoneal injections scheduled at day 0 (150 mg/kg) and day 3 (100 mg/kg). Mice were subcutaneously treated with 0.2 ml of 4F-benzoyl-TN14003 (5 mg/kg) or G-CSF 5 μg/mouse or the combination of both at the indicated time points as detailed in FIG. 14A. Flow cytometery was used to assess the number of cells in the blood and bone marrow (BM) and distinguish between the different populations. Cells were gated according to forward scatter and side scatter to exclude dead cells and to determine granulocytes (GR-1 positive cells).

In a further experiment the test system is neutrophils. Kind of experiment: Chemotherapy (cyclophosphamide)-induced neutropenia model, neutrophil counts. In kind it is in vivo, C57BL/6 mice. The conditions noted are these: cyclophosphamide 150 + 100 mg/kg i.p. days 1 and 4, treatment s.c. days 4-7 (4F-benzoyl-TN14003 5 mg/kg). Here is the method:
In the chemotherapy-induced neutropenia model, a protocol as previously described was followed (Zuluaga et al., 2006). Briefly, Female C57BL/6 mice were injected intraperitoneally with 150 and 100 mg/kg of Cyclophosphamide (CPM) on days 1 and 4, respectively. Following the treatment with CPM, mice were injected s.c. with either G-CSF […], 4F-benzoyl-TN14003 (5 mg/kg) or their combination on day 4, 5, 6 and 7. Blood samples were drawn from each mouse on day 0 and two hours after G-CSF/4F-benzoyl-TN14003 injections on days 4, 5, 6 and 7. Lysis of the erythrocyte population in the blood samples was done using ACK lysis buffer. The number of neutrophils was determined by FACS after staining the cells with anti-PE-Gr-1 antibody.
Neutropenia was induced in female C57BL/6 mice by administration of a total dose of 250 mg/kg cyclophosphamide (CPM) in two 0.5 mL intraperitoneal injections scheduled at day 1 (150 mg/kg) and day 4 (100 mg/kg). The CPM protocol caused 4 days of neutropenia (from day 4 to day 8). When mice were treated with the combination of G-CSF and 4F-benzoyl-TN14003, a significant number of neutrophils was detected in the blood on day 6, as compared to mice that were treated with CPM only or with G-CSF or 4F-benzoyl-TN14003 alone (FIG. 12).

Like-named read-outs stand apart in the source and are kept apart here.

Consider `c1cc(CN2CCCNCCNCCCNCC2)ccc1CN1CCCNCCNCCCNCC1` [AMD3100, reference compound], for which, in experiment [1], the “BFU-E in blood, fold elevation of cell counts from control” value (from here on “BFU-E in blood, fold elevation”) was approximately 30 fold; the “CFU-GEMM in blood, fold elevation of cell counts from control” value was 15.5 fold; the “Progenitors in blood, fold elevation of cell counts from control” value is on record as 4.2 fold. For the same molecule, the “BFU-E in blood, fold elevation” value in experiment [1] (listed as AMD31000) was 35 fold. Moreover, in the experiment with white-blood-cells (WBC), the “Activated macrophages, fold elevation of cell counts from control” value worked out at 6.1 fold; the “MNC, fold elevation of cell counts from control” value was found to be 3.4 fold; the “Neutrophils, fold elevation of cell counts from control” value was determined as 8 fold. In addition, in the experiment with white-blood-cells (WBC) (listed as AMD31000), the “Neutrophils, fold elevation of cell counts from control” value is reported as 8.0 fold and the “Total WBC, fold elevation of cell counts from control” value stood at 2.9 fold. Also, in experiment [2] (stromal cells (14F1.1) seeded with BM cells, 4F-benzoyl-TN14003 10 microgram/ml, G-CSF 100 ng/ml, 4 days), the “production of GR-1 and Ter119 positive cells and progenitors” value is “did not demonstrate this effect”. Also, in experiment [3] (cells from 225 microliter of blood of donors given 5 mg/kg, day 33 post transplantation), the “survival of lethally irradiated recipient mice” value was found to be 37.5%. For the same molecule, in experiment [3] (cells from 900 microliter of blood of donors given 5 mg/kg, day 11 post transplantation), the “survival of lethally irradiated recipient mice” value turned out to be 73%.
Regarding “CXCL12: chemokine, CXCR4's only natural ligand”, the MIP3α secretion entry with PC3 cells is “increased the secretion of MIP3α”; in the experiment on PC3-CXCR4.5 cells (PC3-CXCR4.5 cells, ELISA) it was “increased the secretion of MIP3α”. For the same molecule, in the experiment on PC3-CXCR4.5 cells (transfection with CXCR4-specific or control siRNA), the “CXCR4 dependence of induced MIP3α secretion” value is given as “CXCR4 dependent”.

B1: G-CSF: Granulocyte colony-stimulating factor (G-CSF) (Filgrastim Neupogen) (protein, UniProt P09919 31-207, looked up)
Granulocyte …: TPLGPASSLPQSFLLKCLEQVRKIQGDGAALQEKLVSECATYKLCHPEELVLLGHSLGIPWAPLSSCPSQALQLAGCLSQLHSGLFLYQGLLQALEGISPELGPTLDTLQLDVADFATTIWQQMEELGMAPALQPTQGAMPAFASAFQRRAGGVLVASHLQSFLEVSYRVLRHLAQP
modifications: N-terminal methionine
Take B1: in experiment [1], the “BFU-E in blood, fold elevation” value amounted to 142 fold; the “CFU-GEMM in blood, fold elevation of cell counts from control” value worked out at 151 fold; the “Progenitors in blood, fold elevation of cell counts from control” value is 13.6 fold. In the experiment with white-blood-cells (WBC), the “Activated macrophages, fold elevation of cell counts from control” value was determined as 1.4 fold; the “MNC, fold elevation of cell counts from control” value is reported as 1.4 fold; the “Total WBC, fold elevation of cell counts from control” value amounted to 1.9 fold. Besides, the “GR-1 positive cells in the blood (flow cytometry)” value in experiment [4] is “mobilize GR-1 positive cells and reduce neutropenia”. Moreover, the “number of neutrophils in blood as % of the initial number in normal (untreated) mice” value in the experiment with neutrophils (day 6) is “only a mild effect”. For the same molecule, the “number of neutrophils in blood as % of the initial number” value with neutrophils (day 7) is on record as “not sufficient to elevate neutrophil counts to their normal level”. Also, the “differentiation and proliferation of BM cells on stromal cells (micrographs)” value in experiment [2] (representative experiment, FIG. 17E) was “differentiating and proliferating”.
